# Measured values taken from US20230331685A1, “HERBICIDAL COMPOUNDS AND METHODS OF USE THEREOF” (AG Plenus Ltd, priority 2020, published 2023).
# Assays:
# Format in all cases: in vivo
# Matricaria chamomilla = experiment: LTP post-emergence greenhouse test; conditions: Dosage 2000 g/ha
# Echinochloa crus-galli = experiment: LTP post-emergence greenhouse test; conditions: Dosage 2000 g/ha
# Stellaria media = experiment: LTP post-emergence greenhouse test; conditions: Dosage 2000 g/ha
# Lolium multiflorum = experiment: LTP post-emergence greenhouse test; conditions: Dosage 2000 g/ha
# Chenopodium album = experiment: LTP post-emergence greenhouse test; conditions: Dosage 2000 g/ha
# Amaranthus tuberculatus = experiment: LTP post-emergence greenhouse test; conditions: Dosage 2000 g/ha
# Procedure: A basic panel of eight weed species (Table 3) sowed in 4×4×7 cm plastic pots containing a garden mix (klasmann). Each specie was sowed in a separate pot. In each pot, 10-15 seeds were sowed according to the specie viability. Timing of application determined at a 1-2 true leaf stage. The plants grew for 30 days in a controlled greenhouse (26±2° C. day, 20±2° C. night). Hood irrigation (tap water+Shefer 5:3:8 8 mM) was given at a 50% water content by weight. Two days before application, the tested plants thinned down to three plants per pot. Compounds were soluble in water (DDW), and commercial herbicide control was soluble in formulation B (Table 4). Before application, 1% (v/v) crop oil and 0.02% (v/v) surfactant (Tergitol™ 15-S-7) were added to the solution. […] Plants were evaluated at 3 time points (4, 8, 12 days after application (DAA)). At each time point, visual phenotyping was recorded using a scale of 0-6 (0: no visible effect, 6: maximum effect). […]
# Post-emergence advanced wide panel experiment included 24 weed species (Table 5). […] Visual phenotyping was recorded at 4, 11, 17 and 20 DAA using a scale of 0-6 (0: no visible effect, 6: maximum effect). […] Statistical analysis for visual phenotyping determined by a median value of ≥3.5 and Fisher test (pval≤0.05). Statistical analysis for dry weight determined by % inhibition ≥50 and T test (pval≤0.05), as well as Wilcox test (pval≤0.05).
# Echinochloa colon = experiment: LTP post-emergence greenhouse test; conditions: Dosage 2000 g/ha
# Solanum nigrum = experiment: LTP post-emergence greenhouse test; conditions: Dosage 2000 g/ha
# Ambrosia artemisiifolia = experiment: LTP post-emergence greenhouse test; conditions: Dosage 2000 g/ha
# Abutilon theophrasti = experiment: LTP post-emergence greenhouse test; conditions: Dosage 2000 g/ha
# Setaria viridis = experiment: LTP post-emergence greenhouse test; conditions: Dosage 2000 g/ha
# Arabidopsis thaliana = experiment: HTPS post-emergence application on miniature dicot model plant; conditions: Arabidopsis thaliana, post-emergence, green area (RGB), read-out: Max Inhibition (%)
# Procedure: (§1) The plates were placed in a controlled greenhouse in a random order inside a bath which allows flooding irrigation with tap water supplemented with a fertilizer. Applied compounds were dissolved into a final solution of 50% acetone, 49.9% DDW, 0.1% tween-20. A 96 well plate was used as a stock plate for preparing application solutions for 8 repeats. Each row contained different concentrations per chemical. Maximal concentration for application was 1.5 Kg/Ha and dilution factor is 2.5. Chemical application was performed one day after thinning out in a chemical hood. […] applied on first two true leaves in each well using 12 channel pipettes. Data collection: RGB (red, green, blue) data for green area per well was documented using camera. Data is collected at a few time points during the experiment: one day after thinning and before chemical application, two-, six- or nine-days post application. During the last two documentations, visual phenotyping was performed. Data analysis: Given RGB results and visual phenotype scores, a student t-test conducted to compare between treatment and control performance for continuous data (RGB) and Fisher exact test to analyze the non-continuous data (phenotypic scores). Dose-Response curves are generated for each treatment to infer ED50 and max. inhibition parameters, using treatment's log concentration range as the […] variable and normalized green area. Plate imaging performed at 11 and 18 DAA. RGB data for green area per well was documented and used to extract % inhibition. Dose-Response curves were built for each treatment to infer EC50, EC75 and EC90 parameters, using treatment's log concentration range as the independent variable and normalized green area as the dependent variable. Treatments were compared to controls performance given RGB results and using student's t-test (p-val≤0.05). Compounds 104-154 were applied in either or both pre- and post-emergence mode to either or both monocot and dicot model plants, following the methods described above. The compounds were applied as a gradient of concentrations as listed above, from which the ED50 was calculated.
# Galium aparine = experiment: LTP post-emergence greenhouse test; conditions: Dosage 2000 g/ha
# Conyza canadensis = experiment: LTP post-emergence greenhouse test; conditions: Dosage 2000 g/ha
# [1] = tested on: monocot and eudicot weeds species; experiment: In-planta LTP weed panel, overall assessment; conditions: applied post-emergence; both monocot and dicot species
# Amaranthus palmeri = experiment: LTP post-emergence greenhouse test; conditions: Dosage 2000 g/ha
# Lolium perenne = experiment: LTP post-emergence greenhouse test; conditions: Dosage 2000 g/ha
# Digitaria sanguinalis = experiment: LTP post-emergence greenhouse test; conditions: Dosage 2000 g/ha
# Phalaris minor = experiment: LTP post-emergence greenhouse test; conditions: Dosage 2000 g/ha
# Alopecurus myosuroides = experiment: LTP post-emergence greenhouse test; conditions: Dosage 2000 g/ha
# Eragrostis teff = experiment: HTPS pre-emergence application on monocot model plant
# Procedure: as §1, with “area. […]” for “area.”
# Poa annua = experiment: LTP post-emergence greenhouse test; conditions: Dosage 2000 g/ha
smiles,measurement,setting,value
NC1CCCC(CCCC(=O)O)C1 (centres unmarked) [Compound 145],"Herbicidal activity (In-planta), LTP-Post emergence, Matricaria chamomilla",Matricaria chamomilla,0
same,"Herbicidal activity (In-planta), LTP-Post emergence, Echinochloa crus-galli",Echinochloa crus-galli,60-80
same,"Herbicidal activity (In-planta), LTP-Post emergence, Stellaria media",Stellaria media,20-40
same,"Herbicidal activity (In-planta), LTP-Post emergence, Lolium multiflorum",Lolium multiflorum,20-40
same,"Herbicidal activity (In-planta), LTP-Post emergence, Chenopodium album",Chenopodium album,40-60
same,"Herbicidal activity (In-planta), LTP-Post emergence, Amaranthus tuberculatus",Amaranthus tuberculatus,40-60
same,"Herbicidal activity (In-planta), LTP-Post emergence, Echinochloa colon",Echinochloa colon,20-40
same,"Herbicidal activity (In-planta), LTP-Post emergence, Solanum nigrum",Solanum nigrum,40-60
same,"Herbicidal activity (In-planta), LTP-Post emergence, Ambrosia artemisiifolia",Ambrosia artemisiifolia,20-40
same,"Herbicidal activity (In-planta), LTP-Post emergence, Abutilon theophrasti",Abutilon theophrasti,20-40
same,"Herbicidal activity (In-planta), LTP-Post emergence, Setaria viridis",Setaria viridis,60
same,Emax,Arabidopsis thaliana,100%
same,"Herbicidal activity (In-planta), LTP-Post emergence, Galium aparine",Galium aparine,40-60
same,"Herbicidal activity (In-planta), LTP-Post emergence, Conyza canadensis",Conyza canadensis,40-60
same,activity (in words),[1],good to moderate activity
same,"Herbicidal activity (In-planta), LTP-Post emergence, Amaranthus palmeri",Amaranthus palmeri,20-40
same,"Herbicidal activity (In-planta), LTP-Post emergence, Lolium perenne",Lolium perenne,40-60
same,"Herbicidal activity (In-planta), LTP-Post emergence, Digitaria sanguinalis",Digitaria sanguinalis,60-80
same,"Herbicidal activity (In-planta), LTP-Post emergence, Phalaris minor",Phalaris minor,0
same,"Herbicidal activity (In-planta), LTP-Post emergence, Alopecurus myosuroides",Alopecurus myosuroides,60-80
same,ED50 (g/ha),Eragrostis teff; dose-response of normalized green area,16.8 g/ha
same,Max Inhibition (%),Eragrostis teff; green area (RGB),100%
same,"Herbicidal activity (In-planta), LTP-Post emergence, Poa annua",Poa annua,20-40
